Assay results taken from patent US20100189683A1, “Pulsatile Dosing of Gossypol for Treatment of Disease” (Ascenta Therapeutics, Inc., priority 2008, published 2010).

Tested on: patients with advanced cancer
Experiment: Phase I clinical trial, daily versus pulsatile dosing of (−)-gossypol: adverse events graded by NCI-CTCAE v3 (Daily N = 38, BID × 3 d N = 21, Weekly N = 12)
Assay type: in vivo, human
Procedure: A phase I clinical trial was carried out to compare the maximum tolerated dose and safety of daily (i.e., continuous) versus pulsatile (i.e., intermittent) dosing of (−)-gossypol in patients with advanced cancer. A secondary objective of this study was to identify any anti-tumor activity of (−)-gossypol. Patients were treated with increasing doses of (−)-gossypol according to the following dosing schedules: “Daily” dosing: 5 to 60 mg/day of (−)-gossypol on 21 days per 28 day cycle; “BID×3d” dosing: 30 to 80 mg BID of (−)-gossypol on 3 consecutive days (e.g., Monday-Tuesday-Wednesday) repeated every other week per 28 day cycle; and “Weekly” dosing: 80 to 200 mg of (−)-gossypol once weekly per 28 day cycle. Adverse events (AEs) were graded by NCI-CTCAE v3.

Cc1cc2c(C(C)C)c(O)c(O)c(C=O)c2c(O)c1-c1c(C)cc2c(C(C)C)c(O)c(O)c(C=O)c2c1O [(−)-gossypol]
5 (24) N (%): Abdominal pain (BID × 3 d, Grade ½) | Dyspnea (BID × 3 d, Grade ½)
9 (24) N (%): Constipation (Daily, Grade ½) | Dehydration (Daily, Grade ½)
1 (3) N (%): Flatulence (Daily, Grade ½) | Hypokalemia (Daily, Grade ½) | Hyponatremia (Daily, Grade ½) | Infection (Daily, Grade ½) | Pleural Effusion (Daily, Grade ½)
4 (19) N (%): Weight decreased (BID × 3 d, Grade ½)
13 (34) N (%): Diarrhea (Daily, Grade ½) | Vomiting (Daily, Grade ½)
22 (58) N (%): Nausea (Daily, Grade ½)
7 (18) N (%): ALT increase (Daily, Grade ½) | Dizziness (Daily, Grade ½) | Insomnia (Daily, Grade ½)
8 (38) N (%): Diarrhea (BID × 3 d, Grade ½)
4 (11) N (%): Abdominal distention (Daily, Grade ½) | Pyrexia (Daily, Grade ½) | Sinusitis (Daily, Grade ½)
15 (72) N (%): Fatigue/Asthenia (BID × 3 d, Grade ½)
5 (13) N (%): Headache (Daily, Grade ½) | Peripheral edema (Daily, Grade ½) | Urinary Tract Infection (Daily, Grade ½)
19 (50) N (%): Anorexia or decreased appetite (Daily, Grade ½)
31 (81) N (%): Fatigue/Asthenia (Daily, Grade ½)
0 N (%): Albumin decreased (BID × 3 d, Grade ½) | Cough (BID × 3 d, Grade ½) | Creatinine phosphokinase increase (BID × 3 d, Grade ½) | Hepatic encephalopathy (BID × 3 d, Grade ½) | Hyperbilirubinaemia (BID × 3 d, Grade ½) | Hypocalcemia (BID × 3 d, Grade ½) | Infection (BID × 3 d, Grade ½) | Mental status changes (BID × 3 d, Grade ½) | Pancreatitis (BID × 3 d, Grade ½) | Peripheral edema (BID × 3 d, Grade ½) | Pleural Effusion (BID × 3 d, Grade ½) | Pneumatosis intestinalis (BID × 3 d, Grade ½) | Pneumonia (BID × 3 d, Grade ½) | Renal Failure (BID × 3 d, Grade ½) | Sinusitis (BID × 3 d, Grade ½) | Small intestinal obstruction (ileus) (BID × 3 d, Grade ½) | ALT increase (BID × 3 d, Grade ¾) | AST increase (BID × 3 d, Grade ¾) | Abdominal discomfort (BID × 3 d, Grade ¾) | Abdominal distention (BID × 3 d, Grade ¾) | Albumin decreased (BID × 3 d, Grade ¾) | Alkaline phosphatase increase (BID × 3 d, Grade ¾) | Back pain (BID × 3 d, Grade ¾) | Constipation (BID × 3 d, Grade ¾) | Cough (BID × 3 d, Grade ¾) | Creatinine increased (BID × 3 d, Grade ¾) | Dizziness (BID × 3 d, Grade ¾) | Dry mouth (BID × 3 d, Grade ¾) | Dysgeusia (BID × 3 d, Grade ¾) | Dyspnea (BID × 3 d, Grade ¾) | Flatulence (BID × 3 d, Grade ¾) | Headache (BID × 3 d, Grade ¾) | Hypocalcemia (BID × 3 d, Grade ¾) | Infection (BID × 3 d, Grade ¾) | Insomnia (BID × 3 d, Grade ¾) | Mental status changes (BID × 3 d, Grade ¾) | Nausea (BID × 3 d, Grade ¾) | Peripheral edema (BID × 3 d, Grade ¾) | Pleural Effusion (BID × 3 d, Grade ¾) | Proteinurea (BID × 3 d, Grade ¾) | Pyrexia (BID × 3 d, Grade ¾) | Sinusitis (BID × 3 d, Grade ¾) | Troponin I or T increased (BID × 3 d, Grade ¾) | Urinary Tract Infection (BID × 3 d, Grade ¾) | Weight decreased (BID × 3 d, Grade ¾) | White blood cells increased (BID × 3 d, Grade ¾) | Abdominal discomfort (Daily, Grade ½) | Albumin decreased (Daily, Grade ½) | Creatinine phosphokinase increase (Daily, Grade ½) | Hepatic encephalopathy (Daily, Grade ½) | Mental status changes (Daily, Grade ½) | Pancreatitis (Daily, Grade ½) | Pneumatosis intestinalis (Daily, Grade ½) | Pneumonia (Daily, Grade ½) | Proteinurea (Daily, Grade ½) | Renal Failure (Daily, Grade ½) | Small intestinal obstruction (ileus) (Daily, Grade ½) | White blood cells increased (Daily, Grade ½)
2 (5) N (%): Dysgeusia (Daily, Grade ½) | Hyperbilirubinaemia (Daily, Grade ½) | Hyperkalemia (Daily, Grade ½) | Hypocalcemia (Daily, Grade ½) | Troponin I or T increased (Daily, Grade ½)
11 (52) N (%): Any AE (BID × 3 d, Grade ¾)
14 (67) N (%): Nausea (BID × 3 d, Grade ½)
3 (14) N (%): Abdominal distention (BID × 3 d, Grade ½) | Dehydration (BID × 3 d, Grade ½) | Pain (BID × 3 d, Grade ½) | Pyrexia (BID × 3 d, Grade ½) | Hypokalemia (BID × 3 d, Grade ¾)
10 (48) N (%): Anorexia or decreased appetite (BID × 3 d, Grade ½)
8 (21) N (%): Abdominal pain (Daily, Grade ½) | Cough (Daily, Grade ½)
16 (76) N (%): Any AE (BID × 3 d, Grade ½)
9 (43) N (%): Vomiting (BID × 3 d, Grade ½)
2 (10) N (%): ALT increase (BID × 3 d, Grade ½) | AST increase (BID × 3 d, Grade ½) | Alkaline phosphatase increase (BID × 3 d, Grade ½) | Creatinine increased (BID × 3 d, Grade ½) | Dizziness (BID × 3 d, Grade ½) | Dry mouth (BID × 3 d, Grade ½) | Dysgeusia (BID × 3 d, Grade ½) | Flatulence (BID × 3 d, Grade ½) | Proteinurea (BID × 3 d, Grade ½) | Urinary Tract Infection (BID × 3 d, Grade ½) | White blood cells increased (BID × 3 d, Grade ½) | Abdominal pain (BID × 3 d, Grade ¾) | Dehydration (BID × 3 d, Grade ¾) | Vomiting (BID × 3 d, Grade ¾)
6 (16) N (%): AST increase (Daily, Grade ½) | Alkaline phosphatase increase (Daily, Grade ½) | Back pain (Daily, Grade ½) | Creatinine increased (Daily, Grade ½) | Dyspnea (Daily, Grade ½) | Pain (Daily, Grade ½)
6 (29) N (%): Constipation (BID × 3 d, Grade ½)
38 (100) N (%): Any AE (Daily, Grade ½)
1 (5) N (%): Abdominal discomfort (BID × 3 d, Grade ½) | Back pain (BID × 3 d, Grade ½) | Headache (BID × 3 d, Grade ½) | Hyperkalemia (BID × 3 d, Grade ½) | Hypokalemia (BID × 3 d, Grade ½) | Hyponatremia (BID × 3 d, Grade ½) | Insomnia (BID × 3 d, Grade ½) | Troponin I or T increased (BID × 3 d, Grade ½) | Anorexia or decreased appetite (BID × 3 d, Grade ¾) | Creatinine phosphokinase increase (BID × 3 d, Grade ¾) | Diarrhea (BID × 3 d, Grade ¾) | Fatigue/Asthenia (BID × 3 d, Grade ¾) | Hepatic encephalopathy (BID × 3 d, Grade ¾) | Hyperbilirubinaemia (BID × 3 d, Grade ¾) | Hyperkalemia (BID × 3 d, Grade ¾) | Hyponatremia (BID × 3 d, Grade ¾) | Pain (BID × 3 d, Grade ¾) | Pancreatitis (BID × 3 d, Grade ¾) | Pneumatosis intestinalis (BID × 3 d, Grade ¾) | Pneumonia (BID × 3 d, Grade ¾) | Renal Failure (BID × 3 d, Grade ¾) | Small intestinal obstruction (ileus) (BID × 3 d, Grade ¾)
11 (29) N (%): Weight decreased (Daily, Grade ½)
3 (8) N (%): Dry mouth (Daily, Grade ½)
